Earlier results on three compounds are cited in patent publication US11793802B2, “Treatment of acute myeloid leukemia (AML) with venetoclax failure” (Sumitomo Pharma Oncology, Inc., priority 2019, dated 2023).

For data set [1], the system named is hematological cancers, including AML. The note with it: patients treated with venetoclax.

For the compound `CN1CC[C@H](c2c(OP(=O)(O)O)cc(O)c3c(=O)cc(-c4ccccc4Cl)oc23)[C@H](O)C1` [Formula (I-b)], the oral bioavailability result is recorded as “orally bioavailable”.

As to `Nc1ncn([C@@H]2O[C@H](CO)[C@@H](O)[C@H]2O)c(=O)n1` [azacitidine], the “effect on MCL-1 protein levels in blasts” value with MCL-1 protein is “reduce MCL-1 protein levels”.

With `CC1(C)CCC(CN2CCN(c3ccc(C(=O)NS(=O)(=O)c4ccc(NCC5CCOCC5)c([N+](=O)[O-])c4)c(Oc4cnc5[nH]ccc5c4)c3)CC2)=C(c2ccc(Cl)cc2)C1` [venetoclax], in data set [1], the “patients demonstrated complete remission” value is on record as 8-20% and the “patients showed no response” value is listed as 20-30%. The “patients showed disease progression” value in data set [1] (after 18 months) is given as approximately 50%.
